The source made the active and inactive calls. No cut-off for these calls is given here.
Columns and labels:
Mus musculus [1] = test: Antihyperglycemic activity in STZ-hyperglycemic mouse assessed as decrease in at 50 mg/kg, po measured upto 120 min after administration by oral glucose tolerance test; type: functional, organism-based
Mus musculus [2] = test: Antihyperglycemic activity in STZ-hyperglycemic mouse assessed as decrease in blood glucose level at 150 mg/kg, po measured upto 5 hrs after administration; type: functional, organism-based
[3] = target: T1, Tyrosine-protein phosphatase non-receptor type 1 (Homo sapiens, UniProt P18031); test: Inhibition of Protein tyrosine phosphatase 1B (unknown origin) activity by spectrophotocolorimetric analysis
T1 sequence (P18031 whole entry): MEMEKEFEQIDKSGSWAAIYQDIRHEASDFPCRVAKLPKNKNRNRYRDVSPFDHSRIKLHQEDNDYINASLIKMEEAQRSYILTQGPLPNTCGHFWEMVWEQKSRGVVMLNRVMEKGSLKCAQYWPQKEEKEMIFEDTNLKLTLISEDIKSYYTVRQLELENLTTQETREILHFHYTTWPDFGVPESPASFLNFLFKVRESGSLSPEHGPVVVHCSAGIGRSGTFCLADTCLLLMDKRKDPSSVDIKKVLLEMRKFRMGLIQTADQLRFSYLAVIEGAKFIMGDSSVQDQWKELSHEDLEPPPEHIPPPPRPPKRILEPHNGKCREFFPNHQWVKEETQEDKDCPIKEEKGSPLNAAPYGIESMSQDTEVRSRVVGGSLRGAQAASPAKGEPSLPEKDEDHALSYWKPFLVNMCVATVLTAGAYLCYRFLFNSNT

[4] = target: T2, Pancreatic triacylglycerol lipase (Sus scrofa) (UniProt P00591); test: Inhibition of porcine pancreatic lipase measured after 40 mins by spectrophotocolorimetric enzymatic assay
T2 sequence (whole entry): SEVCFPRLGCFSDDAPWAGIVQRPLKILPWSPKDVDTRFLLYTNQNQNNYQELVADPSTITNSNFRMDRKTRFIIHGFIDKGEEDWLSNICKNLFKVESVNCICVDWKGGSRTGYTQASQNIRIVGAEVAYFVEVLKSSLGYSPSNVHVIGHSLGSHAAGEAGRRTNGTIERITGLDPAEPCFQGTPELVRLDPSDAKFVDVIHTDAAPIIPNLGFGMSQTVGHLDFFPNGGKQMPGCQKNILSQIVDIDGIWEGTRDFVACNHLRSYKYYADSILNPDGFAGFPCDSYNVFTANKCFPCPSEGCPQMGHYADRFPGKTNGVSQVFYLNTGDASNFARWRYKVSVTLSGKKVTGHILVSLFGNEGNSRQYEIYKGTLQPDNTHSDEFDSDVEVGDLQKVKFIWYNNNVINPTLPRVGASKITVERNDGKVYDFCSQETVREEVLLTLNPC

Sus scrofa = species on record: Sus scrofa; test: (§1) Inhibition of porcine pancreatic alpha-amylase measured after 40 mins by spectrophotocolorimetric enzymatic assay
Mus musculus [5] = test: Antihyperglycemic activity in normoglycemic mouse assessed as decrease in at 50 mg/kg, po measured upto 120 min after administration by oral glucose tolerance test; type: functional, organism-based
Mus musculus [6] = test: Hypoglycemic effect in normoglycemic mouse assessed as decrease in blood glucose level at 5 to 50 mg/kg, po measured upto 5 hrs after administration; type: functional, organism-based; conditions: dose 5-50 mg/kg
Mus musculus [7] = test: Antihyperglycemic activity in STZ-induced hyperglycemic CD1 mouse model assessed as reduction in blood glucose AUC at 50 mg/kg, ip measured upto 120 min intraperitoneal by insulin tolerance test; type: functional, organism-based
[8] = as §1; parameters: species or system Sus scrofa

| IC50 [8] [µM] | SMILES | Activity (Mus musculus [1]) | Activity (Mus musculus [2]) | IC50 [3] [µM] | inhibition [4] | inhibition (Sus scrofa) | Activity (Mus musculus [5]) | Activity (Mus musculus [6]) | Activity (Mus musculus [7]) |
| --- | --- | --- | --- | --- | --- | --- | --- | --- | --- |
| – | C=C1C[C@@]23CC[C@H]4[C@@](C)(CCC[C@@]4(C)C(=O)O[C@@H]4O[C@H](CO)[C@@H](O[C@@H]5OC[C@H](O)[C@H](O)[C@H]5O)[C@H](OC(C)=O)[C@H]4OC(C)=O)[C@@H]2[C@@H](O)[C@@H]1C(=O)C3 | Active | Active | 527 | inactive | inactive | Active | Active | Active |
| – | C=C1[C@@H]2CC[C@H]3[C@]4(C)CCC[C@@](C)(C(=O)O[C@@H]5O[C@H](CO)[C@@H](O[C@@H]6OC[C@H](O)[C@H](O)[C@H]6O)[C@H](OC(C)=O)[C@H]5OC(C)=O)[C@H]4CC[C@]3(C2)[C@H]1O[C@@H]1O[C@H](CO)[C@@H](O)[C@H](O)[C@H]1O | – | – | 928 | inactive | inactive | – | – | – |
| – | CC(=O)O[C@@H]1[C@@H](OC(C)=O)[C@H](OC(=O)[C@]2(C)CCC[C@@]3(C)[C@@H]4[C@@H](O)[C@@H]5C(=O)C[C@]4(C=C5C)CC[C@@H]32)O[C@H](CO)[C@H]1O[C@@H]1OC[C@H](O)[C@H](O)[C@H]1O | – | – | 532 | inactive | inactive | – | – | – |
| – | CC(=O)O[C@@H]1[C@@H](OC(C)=O)[C@H](OC(=O)[C@]2(C)CCC[C@@]3(C)[C@@H]4[C@@H](O)C[C@@H]5C[C@@]4(CC[C@@H]32)C[C@@]5(O)CO)O[C@H](CO)[C@H]1O[C@@H]1OC[C@H](O)[C@H](O)[C@H]1O | – | – | 31.8 | inactive | inactive | – | – | – |
| – | CC(=O)O[C@@H]1CC[C@]2(C)[C@H]3CCC4=C([C@@H](C)CCC=C(C)C)CC[C@@]4(C)[C@]3(C)CC[C@H]2C1(C)C | – | – | 1180 | inactive | inactive | – | – | – |
| 3.2 | C[C@H]1O[C@H](O[C@H]2[C@H](O)[C@@H](O)[C@@H](O[C@H]3[C@H](O)[C@@H](O)C(O)O[C@@H]3CO)O[C@@H]2CO)[C@H](O)[C@@H](O)[C@@H]1N[C@H]1C=C(CO)[C@@H](O)[C@H](O)[C@H]1O (stereo partly specified) [ACARBOSE] | – | – | – | – | – | – | – | – |
